Laboratory results as given in paper PMC7794376 (Nature Communications, 2021).
≈ marks a conversion by molar mass, not a printed value. Where “and” joins values, the source holds several entries; their conditions need not be identical. Identical values can stand only once. Like-named read-outs stand apart in the source and are kept apart here.

Tests used:
[1] = target: human CoaB (HCoaB) (Homo sapiens, UniProt Q9HAB8); experiment: EnzChek pyrophosphate assay, HCoaB; type: biochemical; settings: HCoaB, replicates R1-R3
[2] = target: MsmCoaBC (Mycolicibacterium smegmatis, UniProt A0QWT2); experiment: EnzChek pyrophosphate assay, CoaB activity of MsmCoaBC; type: biochemical, Mycobacterium smegmatis; settings: for Activity: slope of absorbance at 360 nm vs time (s); for inhibition, IC50 MsmCoaBC 2b / reaction rate (slope of absorbance at 360 nm over time), IC50 MsmCoaBC 2b / remaining activity relative to control, IC50 MsmCoaBC 2b: triplicate
Method: The commercially available EnzChek pyrophosphate assay kit (E-6645) (Life Technologies) was used for this assay. […] In the assays with HCoaB an enzyme concentration of 1 µM was used instead. […] Assays were performed on either a CLARIOstar or PHERAstar microplate reader (BMG Labtech) in 96-well plates (Greiner). A substrate mixture containing the substrates and the inhibitor was pre-incubated at 25 °C for 10 min. An enzyme solution was prepared and separately pre-incubated at 25 °C for 10 min. The reaction was initiated by the addition of the substrates to the solution containing the enzyme to a final volume of 75 µL. Enzymatic activity was monitored by following the absorbance at 360 nm for 30 min (100 cycles/20 s each cycle) and only the steady-state region of the assay was used for data analysis. Assays were performed in triplicates, including a negative control (lacking PPA) and a positive control (lacking inhibitor).

[3] = target: T1, MtbCoaBC (Mycobacterium tuberculosis, UniProt P9WNZ1); experiment: High-throughput end-point pyrophosphate quantification assay (Biomol Green); type: biochemical; settings: MtbCoaB activity; end-point, 2 µM CTP, 40 µM L-cysteine, 30 µM PPA; read-out: IC50 biomol green assay
[4] = target: T1, MtbCoaBC; experiment: Competition assays, first half of CoaB reaction (EnzChek, variable CTP or PPA); type: biochemical; settings: for mode of inhibition: in words
[5] = target: T1, MtbCoaBC; experiment: CMP quantification assay (UPLC), second half of CoaB reaction, variable L-cysteine; type: biochemical; settings: for uM CMP/uM protein.s-1 (rate of CMP formation): MtbCoaBC 32nM, replicates R1-R3
[6] = test system: M. tuberculosis H37Rv; experiment: MIC determination in different media; type: cell-based; settings: Mycobacterium tuberculosis, read-out: Minimum inhibitory concentration (MIC)
[7] = test system: M. tuberculosis coaBC Tet-OFF conditional knockdown; type: cell-based, Mycobacterium tuberculosis; settings: GAST/Fe minimal media
[8] = 0.015625 uM 2b, relative to average DMSO CT, replicates R1-R3
[9] = 0.015625 uM 2b, replicates R1-R3
[10] = 0.03125 uM 2b, relative to average DMSO CT, replicates R1-R3
[11] = 0.03125 uM 2b, replicates R1-R3
[12] = 0.0625 uM 2b, relative to average DMSO CT, replicates R1-R3
[13] = 0.25 uM 2b, relative to average DMSO CT, replicates R1-R3
[14] = 0.5 uM 2b, relative to average DMSO CT, replicates R1-R3
[15] = inhibitor concentration 1 (log 0; unit not given)
[16] = inhibitor concentration 2 (log 0.30103; unit not given)

T1 sequence (P9WNZ1 whole entry): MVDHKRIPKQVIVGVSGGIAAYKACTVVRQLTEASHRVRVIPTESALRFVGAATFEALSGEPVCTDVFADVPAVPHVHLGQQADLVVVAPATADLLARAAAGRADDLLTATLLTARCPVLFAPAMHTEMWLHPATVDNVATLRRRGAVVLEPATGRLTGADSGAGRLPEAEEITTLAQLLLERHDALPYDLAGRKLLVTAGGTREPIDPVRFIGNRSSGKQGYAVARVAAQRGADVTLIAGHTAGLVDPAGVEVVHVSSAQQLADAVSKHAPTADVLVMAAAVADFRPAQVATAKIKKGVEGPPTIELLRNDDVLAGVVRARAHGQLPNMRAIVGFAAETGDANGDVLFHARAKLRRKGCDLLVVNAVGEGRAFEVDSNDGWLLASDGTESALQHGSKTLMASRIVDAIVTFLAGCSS
MsmCoaBC, sequence (A0QWT2 whole entry): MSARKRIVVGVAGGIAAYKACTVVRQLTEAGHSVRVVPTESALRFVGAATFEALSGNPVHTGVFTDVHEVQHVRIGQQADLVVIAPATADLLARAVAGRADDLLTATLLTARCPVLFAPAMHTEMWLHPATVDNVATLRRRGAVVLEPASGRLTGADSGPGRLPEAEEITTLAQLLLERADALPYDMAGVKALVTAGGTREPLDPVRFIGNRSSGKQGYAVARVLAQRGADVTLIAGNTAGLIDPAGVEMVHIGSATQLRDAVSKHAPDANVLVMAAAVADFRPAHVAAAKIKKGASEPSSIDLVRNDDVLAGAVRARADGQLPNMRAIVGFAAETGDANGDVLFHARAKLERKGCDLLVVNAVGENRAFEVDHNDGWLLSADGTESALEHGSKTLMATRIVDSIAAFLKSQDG
human CoaB (HCoaB), sequence (Q9HAB8 whole entry): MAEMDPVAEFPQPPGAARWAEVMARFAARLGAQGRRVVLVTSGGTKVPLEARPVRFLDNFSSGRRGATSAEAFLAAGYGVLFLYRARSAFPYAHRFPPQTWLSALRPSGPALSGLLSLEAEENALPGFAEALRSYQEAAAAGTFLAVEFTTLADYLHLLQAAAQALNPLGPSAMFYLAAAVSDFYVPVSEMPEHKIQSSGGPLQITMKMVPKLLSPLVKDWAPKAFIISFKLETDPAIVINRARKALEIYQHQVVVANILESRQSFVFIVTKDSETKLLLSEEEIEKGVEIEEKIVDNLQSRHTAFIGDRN

In the case of `O=c1cc(-c2ccc(O)c(O)c2)oc2cc(O)c(O)cc12` [compound 2b], the activity at 50 µM ([1]; 50 uM compound, relative to average DMSO CT) is reported as 59%, the Activity % ([1]; 50 uM compound, relative to average DMSO CT, 50 µM) is reported as 54.55% and 56.86% and the inhibition at 50 µM ([1]; 50 uM compound) is reported as 45.5%. For the same compound, the Inhibition % ([1]; 50 uM compound, 50 µM) was 43.14% and 41.04%, the activity at 100 µM ([1]; 100 uM compound, relative to average DMSO CT) was 38% and the Activity % ([1]; 100 uM compound, relative to average DMSO CT, 100 µM) was 40.03% and 34.07%. For the same compound, the inhibition at 100 µM ([1]; 100 uM compound) was 60%, the Inhibition % ([1]; 100 uM compound, 100 µM) was 65.93% and 62.02% and the IC50 [2] was 180 ± 20 nM. For the same compound, the Activity % [2, 8] was 94.35% and 94.28%, the activity at 0.015625 µM [2, 8] was 95.3% and the Inhibition % [2, 9] was 5.72% and 4.75%. The inhibition at 0.015625 µM [2, 9] was 5.65%, the Activity [2, 9] was 0.0002955 and 0.0002927 and 0.0002925 and the Activity % [2, 10] was 88.08% and 86.2%. For the same compound, the activity at 0.03125 µM [2, 10] was 89.5%, the Inhibition % [2, 11] was 13.80% and 10.50% and the inhibition at 0.03125 µM [2, 11] was 11.9%. The Activity [2, 11] was 0.0002776 and 0.0002732 and 0.0002674, the Activity % [2, 12] was 71.12% and 70.67% and the activity at 0.0625 µM [2, 12] was 74.4%. The Inhibition % ([2]; 0.0625 uM 2b, replicates R1-R3) was 29.33% and 25.59%, the inhibition at 0.0625 µM ([2]; 0.0625 uM 2b, replicates R1-R3) was 28.9% and the Activity ([2]; 0.0625 uM 2b, replicates R1-R3) was 0.0002308 and 0.0002206 and 0.0002192. For the same compound, the Activity % [2, 13] was 41.76% and 47.03%, the activity at 0.25 µM [2, 13] was 45.6% and the Inhibition % ([2]; 0.25 uM 2b, replicates R1-R3) was 52.97% and 54.45%. The inhibition at 0.25 µM ([2]; 0.25 uM 2b, replicates R1-R3) was 58.2%, the Activity ([2]; 0.25 uM 2b, replicates R1-R3) was 0.0001413 and 0.0001296 and 0.0001459 and the Activity % [2, 14] was 29.05% and 29.76%. The activity at 0.5 µM [2, 14] was 30.5%, the Inhibition % ([2]; 0.5 uM 2b, replicates R1-R3) was 70.24% and 69.54% and the inhibition at 0.5 µM ([2]; 0.5 uM 2b, replicates R1-R3) was 71%. The Activity ([2]; 0.5 uM 2b, replicates R1-R3) was 0.000094507 and 0.000090122 and 0.000092326, the “inhibition, IC50 MsmCoaBC 2b” value [2, 15] was 88.05 and 84.53 and 91.37 and the “reaction rate (slope of absorbance at 360 nm over time), IC50 MsmCoaBC 2b” value [2, 15] was 0.000026783 and 0.000037077 and 0.000047977. The “remaining activity relative to control, IC50 MsmCoaBC 2b” value [2, 15] was 8.633 and 11.95 and 15.47, the “inhibition, IC50 MsmCoaBC 2b” value [2, 16] was 96.00 and 96.49 and 94.20 and the “reaction rate (slope of absorbance at 360 nm over time), IC50 MsmCoaBC 2b” value [2, 16] was 0.000017982 and 0.000012403 and 0.000010882. The “remaining activity relative to control, IC50 MsmCoaBC 2b” value [2, 16] was 5.796 and 3.998 and 3.508, the IC50 [3] was 100 nM and the mode of inhibition ([4]; relative to CTP) was “mixed inhibition”. The mode of inhibition ([4]; relative to PPA) was “uncompetitive inhibition”, the Inibition type ([4]; variable substrate CTP) was “Mixed” and the Ki ([4]; variable substrate CTP) was 93 ± 18 nM. The “uM CMP/uM protein.s-1 (rate of CMP formation)” value ([5]; 0.03125uM 2b, 31.25 uM cysteine) was 0.1688 uM CMP/uM protein.s-1 and 0.1774 uM CMP/uM protein.s-1 and 0.1722 uM CMP/uM protein.s-1, the “uM CMP/uM protein.s-1 (rate of CMP formation)” value ([5]; 0.03125uM 2b, 62.5 uM cysteine) was 0.2177 uM CMP/uM protein.s-1 and 0.2245 uM CMP/uM protein.s-1 and 0.2185 uM CMP/uM protein.s-1 and the “uM CMP/uM protein.s-1 (rate of CMP formation)” value ([5]; 0.03125uM 2b, 250 uM cysteine) was 0.2696 uM CMP/uM protein.s-1 and 0.2689 uM CMP/uM protein.s-1 and 0.2761 uM CMP/uM protein.s-1. For the same compound, the “uM CMP/uM protein.s-1 (rate of CMP formation)” value ([5]; 0.03125uM 2b, 500 uM cysteine) was 0.3036 uM CMP/uM protein.s-1 and 0.2988 uM CMP/uM protein.s-1 and 0.3158 uM CMP/uM protein.s-1, the “uM CMP/uM protein.s-1 (rate of CMP formation)” value ([5]; 0.0625uM 2b, 31.25 uM cysteine) was 0.139 uM CMP/uM protein.s-1 and 0.1432 uM CMP/uM protein.s-1 and 0.1461 uM CMP/uM protein.s-1 and the “uM CMP/uM protein.s-1 (rate of CMP formation)” value ([5]; 0.0625uM 2b, 62.5 uM cysteine) was 0.1762 uM CMP/uM protein.s-1 and 0.1605 uM CMP/uM protein.s-1 and 0.1802 uM CMP/uM protein.s-1. The “uM CMP/uM protein.s-1 (rate of CMP formation)” value ([5]; 0.0625uM 2b, 250 uM cysteine) was 0.2128 uM CMP/uM protein.s-1 and 0.2019 uM CMP/uM protein.s-1 and 0.2135 uM CMP/uM protein.s-1, the “uM CMP/uM protein.s-1 (rate of CMP formation)” value ([5]; 0.0625uM 2b, 500 uM cysteine) was 0.2223 uM CMP/uM protein.s-1 and 0.2126 uM CMP/uM protein.s-1 and 0.2324 uM CMP/uM protein.s-1 and the mode of inhibition ([5]; relative to L-cysteine, in words) was “uncompetitive inhibition”. For the same compound, the MIC ([6]; 7H9/ADC/Glycerol) was > 250 µM, the MIC ([6]; 7H9/Cholesterol/Tyloxapol) was > 250 µM and the MIC ([6]; GAST/Fe) was 50 µM (≈ 14.3 µg/mL). The “sensitisation on incremental silencing of CoaBC” value [7] was “did not sensitise M. tuberculosis further”.
